The text below walks through data of PMC5461819 (Peptides, 2015).

“And” between values parts separate entries of the source, which are not always exact repeats. Equal entries are not always repeated. “Also recorded” adds a separate entry of the source. Where two headings read alike, the source gives them in different places.

As a reminder, the IC50 is the concentration needed to halve the response being measured. Lower therefore signals greater potency.

Assay [1] has as its target T1, human GRPR (Homo sapiens, UniProt P30550). Kind of assay: [3H]Inositol phosphate generation, hGRPR/BALB cells. Type of assay: cell-based.
For assay [2], the target named is T2, human NMBR (Homo sapiens, UniProt P28336). Kind of assay: [3H]Inositol phosphate generation, hNMBR/BALB cells. In kind it is cell-based.
The target in assay [3] is T3, rat GRPR (Rattus norvegicus, UniProt P52500). As to the kind of experiment: [3H]Inositol phosphate generation, rGRPR/AR42J cells. In kind it is cell-based.
The next assay addresses T4, mouse BRS-3 (Mus musculus, UniProt O54798).
T4 sequence (O54798 1-399): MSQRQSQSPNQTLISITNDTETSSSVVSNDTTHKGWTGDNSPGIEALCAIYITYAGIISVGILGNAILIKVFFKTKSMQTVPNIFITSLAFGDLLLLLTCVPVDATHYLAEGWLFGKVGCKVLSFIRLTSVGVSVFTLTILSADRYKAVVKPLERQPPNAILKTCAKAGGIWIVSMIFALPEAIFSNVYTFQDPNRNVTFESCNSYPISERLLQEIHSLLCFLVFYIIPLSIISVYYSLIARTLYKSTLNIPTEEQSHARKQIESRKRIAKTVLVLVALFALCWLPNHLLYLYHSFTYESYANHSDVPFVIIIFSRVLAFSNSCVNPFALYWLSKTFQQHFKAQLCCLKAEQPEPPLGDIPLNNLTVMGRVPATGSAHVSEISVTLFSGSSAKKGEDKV
Kind of assay: [3H]Inositol phosphate generation, mBRS-3/BALB cells. In kind it is cell-based.

Assay [4] deals with T5, mouse GRPR (Mus musculus, UniProt P21729). As to the kind of experiment: [3H]Inositol phosphate generation, mGRPR/BALB cells. In kind it is cell-based.
Another assay addresses T6, rat BRS-3 (Rattus norvegicus, UniProt Q8K418).
T6 sequence (Q8K418 1-399): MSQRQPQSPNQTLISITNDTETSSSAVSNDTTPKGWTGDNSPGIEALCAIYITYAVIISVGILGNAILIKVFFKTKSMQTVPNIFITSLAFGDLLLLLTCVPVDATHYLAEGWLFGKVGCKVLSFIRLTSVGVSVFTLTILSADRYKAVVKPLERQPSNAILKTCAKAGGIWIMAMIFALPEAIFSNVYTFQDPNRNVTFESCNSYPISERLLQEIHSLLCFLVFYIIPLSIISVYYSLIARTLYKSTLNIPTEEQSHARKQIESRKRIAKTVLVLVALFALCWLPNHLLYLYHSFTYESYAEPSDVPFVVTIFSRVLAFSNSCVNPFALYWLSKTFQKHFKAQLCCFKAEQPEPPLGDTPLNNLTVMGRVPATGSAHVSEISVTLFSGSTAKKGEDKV
Kind of assay: [3H]Inositol phosphate generation, rBRS-3/BALB cells. In kind it is cell-based.

Assay [5] deals with T7, human BRS-3 (Homo sapiens, UniProt P32247).
T7 sequence (P32247 1-399): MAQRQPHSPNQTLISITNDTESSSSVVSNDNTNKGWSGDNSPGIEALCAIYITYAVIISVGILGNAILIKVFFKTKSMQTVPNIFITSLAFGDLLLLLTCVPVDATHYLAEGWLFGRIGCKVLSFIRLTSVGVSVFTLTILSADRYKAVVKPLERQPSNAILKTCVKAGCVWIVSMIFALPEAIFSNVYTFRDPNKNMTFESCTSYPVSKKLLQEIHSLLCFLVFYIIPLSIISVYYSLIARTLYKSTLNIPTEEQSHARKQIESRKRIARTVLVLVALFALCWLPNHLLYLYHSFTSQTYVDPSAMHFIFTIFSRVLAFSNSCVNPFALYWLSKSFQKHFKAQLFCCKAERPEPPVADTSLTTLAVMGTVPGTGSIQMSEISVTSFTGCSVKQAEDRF
Kind of assay: [3H]Inositol phosphate generation. The settings on record: for IC50/ EC50 hBRS-3/BALB: binding IC50 over [3H]IP EC50, hBRS-3/BALB cells, measure of receptor spareness. In kind it is cell-based.

Assay [6] deals with T8, mouse NMBR (Mus musculus, UniProt O54799).
T8 sequence (O54799 1-390): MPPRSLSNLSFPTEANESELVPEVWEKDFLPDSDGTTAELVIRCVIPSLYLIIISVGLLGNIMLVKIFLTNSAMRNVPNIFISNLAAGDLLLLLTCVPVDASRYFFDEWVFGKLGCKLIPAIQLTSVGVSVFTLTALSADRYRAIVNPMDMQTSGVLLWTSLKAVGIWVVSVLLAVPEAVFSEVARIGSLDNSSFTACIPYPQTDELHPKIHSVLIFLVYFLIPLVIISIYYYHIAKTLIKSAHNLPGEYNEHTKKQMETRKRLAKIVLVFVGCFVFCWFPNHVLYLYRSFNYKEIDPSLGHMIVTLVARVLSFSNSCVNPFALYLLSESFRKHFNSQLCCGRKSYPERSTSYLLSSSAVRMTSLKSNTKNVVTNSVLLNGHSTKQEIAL
As to the kind of experiment: [3H]Inositol phosphate generation, mNMBR/BALB cells. Type of assay: cell-based.

In assay [7] the target is T9, rat NMBR (Rattus norvegicus, UniProt P24053).
T9 sequence (P24053 1-390): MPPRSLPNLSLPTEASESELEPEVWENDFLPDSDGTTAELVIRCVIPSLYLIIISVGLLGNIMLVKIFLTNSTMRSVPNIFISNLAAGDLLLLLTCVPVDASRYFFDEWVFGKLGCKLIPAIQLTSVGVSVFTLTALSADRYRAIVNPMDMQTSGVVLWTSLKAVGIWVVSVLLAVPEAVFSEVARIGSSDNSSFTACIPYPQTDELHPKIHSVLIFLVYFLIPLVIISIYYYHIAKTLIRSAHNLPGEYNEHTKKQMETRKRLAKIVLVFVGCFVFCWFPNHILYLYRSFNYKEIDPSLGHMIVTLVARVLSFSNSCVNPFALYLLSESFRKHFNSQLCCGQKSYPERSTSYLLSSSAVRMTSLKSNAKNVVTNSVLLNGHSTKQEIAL
Kind of assay: [3H]Inositol phosphate generation, rNMBR/BALB cells. Type of assay: cell-based.

In assay [8] the target is T7, human BRS-3. As to the kind of experiment: Binding studies, inhibition of 125I-[D-Tyr6,β-Ala11,Phe13,Nle14]Bn-.
Assay [9] concerns the target T9, rat NMBR. As to the kind of experiment: Binding studies, rNMBR/BALB cells.
Assay [10] addresses T8, mouse NMBR. As to the kind of experiment: Binding studies, mNMBR/BALB cells.
The target in assay [11] is T2, human NMBR. As to the kind of experiment: Binding studies, hNMBR/BALB cells.
For assay [12], the target named is T1, human GRPR. As to the kind of experiment: Binding studies, hGRPR/BALB cells.
Assay [13] addresses T5, mouse GRPR. Kind of assay: Binding studies, mGRPR/BALB cells.
Assay [14] addresses T3, rat GRPR. As to the kind of experiment: Binding studies, rGRPR/AR42J cells.
Setting [15] is: read-out: EC50 Human GRPR hGRPR/BALB, [3H]IP production, 60 min, 37°C.
[16] abbreviates: read-out: EC50 Human NMBR hNMBR/BALB, [3H]IP production, 60 min, 37°C.
The mark [17] stands for this setting: read-out: EC50 Rat GRPR rGRPR/AR42J, [3H]IP production, 60 min, 37°C.
Setting [18] is: read-out: EC50 Mouse BRS-3 mBRS-3/BALB, [3H]IP production, 60 min, 37°C.
Where [19] appears, read: read-out: EC50 Mouse GRPR mGRPR/BALB, [3H]IP production, 60 min, 37°C.
The mark [20] stands for this setting: read-out: EC50 Rat BRS-3 rBRS-3/BALB, [3H]IP production, 60 min, 37°C.
[21] abbreviates: read-out: EC50 Human BRS-3 hBRS-3/BALB, [3H]IP production, 60 min, 37°C.
Setting [22] is: read-out: EC50 Mouse NMBR mNMBR/BALB, [3H]IP production, 60 min, 37°C.
[23] abbreviates: read-out: EC50 Rat NMBR rNMBR/BALB, [3H]IP production, 60 min, 37°C.

T2 sequence (P28336 whole entry): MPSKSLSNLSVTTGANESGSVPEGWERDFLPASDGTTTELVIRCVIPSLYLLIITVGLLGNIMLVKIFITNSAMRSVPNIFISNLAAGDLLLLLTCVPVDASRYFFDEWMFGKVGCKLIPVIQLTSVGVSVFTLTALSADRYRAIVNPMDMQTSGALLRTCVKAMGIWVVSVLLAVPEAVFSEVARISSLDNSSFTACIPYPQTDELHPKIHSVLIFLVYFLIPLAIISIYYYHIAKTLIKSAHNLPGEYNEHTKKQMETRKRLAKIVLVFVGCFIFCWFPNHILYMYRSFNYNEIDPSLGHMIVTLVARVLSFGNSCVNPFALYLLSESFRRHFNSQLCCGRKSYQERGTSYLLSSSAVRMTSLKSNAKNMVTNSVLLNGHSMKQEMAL
T3 sequence (P52500 whole entry): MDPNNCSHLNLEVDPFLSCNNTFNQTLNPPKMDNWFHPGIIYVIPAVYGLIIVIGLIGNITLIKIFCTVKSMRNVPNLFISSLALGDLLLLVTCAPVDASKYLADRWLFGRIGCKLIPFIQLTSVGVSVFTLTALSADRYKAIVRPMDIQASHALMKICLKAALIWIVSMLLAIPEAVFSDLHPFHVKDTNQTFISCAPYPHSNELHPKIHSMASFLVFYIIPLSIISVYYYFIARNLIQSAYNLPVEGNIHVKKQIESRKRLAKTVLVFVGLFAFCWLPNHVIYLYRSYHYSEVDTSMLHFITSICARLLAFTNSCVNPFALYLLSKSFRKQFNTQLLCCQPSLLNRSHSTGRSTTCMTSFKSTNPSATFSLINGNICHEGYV
T5 sequence (P21729 whole entry): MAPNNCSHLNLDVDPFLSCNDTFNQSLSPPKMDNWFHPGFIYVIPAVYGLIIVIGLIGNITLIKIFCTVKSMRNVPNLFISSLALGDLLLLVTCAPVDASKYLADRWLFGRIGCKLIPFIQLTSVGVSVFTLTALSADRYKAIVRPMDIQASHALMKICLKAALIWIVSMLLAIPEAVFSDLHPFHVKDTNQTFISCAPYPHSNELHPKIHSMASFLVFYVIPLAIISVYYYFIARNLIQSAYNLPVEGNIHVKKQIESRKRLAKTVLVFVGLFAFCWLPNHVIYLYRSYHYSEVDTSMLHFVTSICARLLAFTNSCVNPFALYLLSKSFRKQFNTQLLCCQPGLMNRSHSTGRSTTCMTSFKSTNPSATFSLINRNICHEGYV
T1 sequence (P30550 whole entry): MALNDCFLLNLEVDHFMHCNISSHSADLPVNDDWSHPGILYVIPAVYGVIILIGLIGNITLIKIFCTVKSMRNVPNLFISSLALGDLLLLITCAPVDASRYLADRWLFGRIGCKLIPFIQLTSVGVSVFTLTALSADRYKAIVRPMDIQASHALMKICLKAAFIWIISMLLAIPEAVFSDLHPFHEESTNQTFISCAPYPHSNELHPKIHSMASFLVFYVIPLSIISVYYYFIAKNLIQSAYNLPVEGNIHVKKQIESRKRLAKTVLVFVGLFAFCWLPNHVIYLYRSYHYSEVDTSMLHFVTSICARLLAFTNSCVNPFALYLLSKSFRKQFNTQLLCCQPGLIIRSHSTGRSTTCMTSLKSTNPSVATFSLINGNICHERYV

Regarding `Cc1ccc(Oc2cccc(CC(=O)N3CCNc4nc(C(F)(F)F)ccc4[C@H]3CC(=O)O)c2)cn1` [9F, [(5R)-4-((3-[(6-methylpyridin-3-yl)oxy]phenyl)acetyl)-8-(trifluoromethyl)-2,3,4,5-tetrahydro-1H-pyrido[2,3-e][1, 4]diazepin-5-yl]acetic acid], the EC50 was above 3000 nM on human GRPR [1] (setting [15]); above 3000 nM at human NMBR [2] (setting [16]); above 3000 nM on rat GRPR [3] (setting [17]); 86.8 ± 0.8 nM on mouse BRS-3 (setting [18]); above 3000 nM on mouse GRPR [4] (setting [19]); 295 ± 0.5 nM at rat BRS-3 (setting [20]). Besides, the EC50 was 39 nM on human BRS-3 [5] (setting [21]); 39.6 ± 1 nM on human BRS-3 [5] (read-out: EC50 Human BRS-3 hBRS-3/BALB, [3H]IP production, 60 min, 37°C, listed as 9 F); above 3000 nM on mouse NMBR [6] (setting [22]); above 3000 nM on rat NMBR [7] (setting [23]). Besides, the entries for the “less potent than MK-5046” value at mouse BRS-3 (mBRS-3/BALB cells) and at rat BRS-3 (rBRS-3/BALB cells) were 5 fold and 8 fold, respectively. Also, the “lower potency compared to 9D or 9G” value on mouse BRS-3 (mBRS-3/BALB cells) is listed as 4.3 fold. For the same compound, at rat BRS-3 (rBRS-3/BALB cells), the “lower potency than 9G and 3F” value is reported as 7.8 fold. The “lower potency than 9G or 9D” value at human BRS-3 [5] (hBRS-3/BALB cells) came out at 4.3 fold. The “lower affinity compared with 9G” value on human BRS-3 [8] (hBRS-3/BALB cells) is given as 1.7-13 fold.
With `CC(C)COc1cccc(CC(=O)N2CCNc3nc(C(F)(F)F)ccc3[C@H]2CC(=O)O)c1` [9G, [(5R)-4-([3-(2-methylpropoxy)phenyl]acetyl)-8-(trifluoromethyl)-2,3,4,5-tetrahydro-1H-pyrido[2,3-e][1, 4]diazepin-5-yl]acetic acid], the EC50 on human GRPR [1] (setting [15]) was above 3000 nM; at human NMBR [2] (setting [16]), above 3000 nM; on rat GRPR [3] (setting [17]), above 3000 nM; on mouse BRS-3 (setting [18]) it was 20.1 ± 0.9 nM; at mouse GRPR [4] (setting [19]) it was above 3000 nM; on rat BRS-3 (setting [20]), 37.9 ± 0.8 nM. Further, the EC50 at human BRS-3 [5] (setting [21]) is 9 nM; at human BRS-3 [5] (read-out: EC50 Human BRS-3 hBRS-3/BALB, [3H]IP production, 60 min, 37°C, listed as 9 G), 9.2 ± 0.39 nM; on mouse NMBR [6] (setting [22]), above 3000 nM; on rat NMBR [7] (setting [23]), above 3000 nM. The “less potent than MK-5046” value is 3.5–3.8 fold and 4 fold at mouse BRS-3 (mBRS-3/BALB cells); 165 fold at rat BRS-3 (rBRS-3/BALB cells). In addition, the “IC50/ EC50 hBRS-3/BALB” value on human BRS-3 [5] was 7.6. Besides, the “affinity greater than MK-5046” value on human BRS-3 [8] (hBRS-3/BALB cells) came to 1.5 fold.
For the compound `O[C@@](Cc1nc(CC2(C(F)(F)F)CC2)c[nH]1)(c1ccc(-n2cccn2)cc1)C(F)(F)F` [MK-5046, (2S)-1,1,1-trifluoro-2-[4-(1H-pyrazol-1-yl)phenyl]-3-(4-[[1-(trifluoromethyl)cyclopropyl]methyl]-1H-imidazol-2-yl)propan-2-ol], the EC50 is above 3000 nM at human GRPR [1]; above 3000 nM at human NMBR [2]; above 3000 nM on rat GRPR [3]; 5.24 ± 0.36 nM at mouse BRS-3; above 3000 nM at mouse GRPR [4]; 0.23 ± 0.08 nM at rat BRS-3. The EC50 is 8.7 ± 0.47 nM on human BRS-3 [5], above 3000 nM at mouse NMBR [6] and above 3000 nM at rat NMBR [7]. The IC50 at rat NMBR [9], on mouse NMBR [10], at human NMBR [11], on human GRPR [12], at mouse GRPR [13] and on rat GRPR [14] was above 3000 nM throughout. On human BRS-3 [8], this compound showed an IC50 of 102 ± 2 nM. Moreover, the “maximal stimulation of [3H]IP” value was 62,992 ± 9,298 dpm at mouse BRS-3 (mBRS-3/BALB cells, 1 μM, n=3) and 21,812 ± 1,721 dpm at rat BRS-3 (rBRS-3/BALB cells, 1 μM, n=7). The “efficacy for activating PLC” value at mouse BRS-3 (mouse BRS-3 cells), at rat BRS-3 (rat BRS-3 cells) and on human BRS-3 [5] (human BRS-3 cells) was “full efficacious; also recorded: fully efficacious” in each case. The “increase on activating PLC” value was 3.9 fold on mouse BRS-3 (mouse BRS-3 containing cells), 5.8 fold at rat BRS-3 (rat BRS-3 containing cells) and 3.8 fold on human BRS-3 [5] (human BRS-3 containing cells). In addition, on rat BRS-3 (rBRS-3 versus hBRS-3), the “more potent in rBRS-3 than in hBRS-3” value is given as 38 fold. Also, the “more potent in rBRS-3 than in mBRS-3” value at rat BRS-3 (rBRS-3 versus mBRS-3) is on record as 22 fold. The “IC50/ EC50 hBRS-3/BALB” value on human BRS-3 [5] is 11.7 and 11.72. Besides, the “maximal stimulated [3H]IP value” on human BRS-3 [5] (hBRS-3/BALB cells, 1 μM, n=13) is 70,268 ± 4,912 dpm.
